Data taken from publication PMC4532424, “The Novel Cyclophilin Inhibitor CPI-431-32 Concurrently Blocks HCV and HIV-1 Infections via a Similar Mechanism of Action” (PLoS ONE, 2015).
Like-named read-outs stand apart in the source and are kept apart here.

Legend:
HIV-1 JR-CSF [1] = assay: HIV-1/HCV co-culture co-infection, HIV-1 p24 ELISA; type: cell-based
Method: (§1) CD4+ T-lymphocytes and Huh7.5.1 cells uninfected or infected for 3 h as described above were mixed in a single flask and HIV-1 and HCV replication monitored over a period of 3 weeks as described above.
(§2) HIV-1 target cells—CD4+ T-lymphocytes—and HCV target cells—hepatoma cells—were placed in a single chamber (flask), exposed to both HIV-1 and HCV, and viral replication monitored over time by p24 capsid and core ELISAs, respectively.
(§3) CD4+ T-lymphocytes (A) and Huh7.5.1 cells (B) (0.5 x 10^6 cells) (triplicates) were exposed to HIV-1 JR-CSF and HCV JFH-1. Drugs (2 μM) were added 3 h pre-viral exposure (top panels) or 3 days post-viral exposure (bottom panels). Viral replications were monitored by HIV-1 p24 and HCV core ELISAs. C. CD4+ T-lymphocytes (0.5 x 10^6 cells) (triplicates) were exposed to HIV-1 JR-CSF. Drugs were initially added 3 days post-viral exposure (2 μM) and then daily (0.5 μM). Viral replications were monitored by HIV-1 p24 and HCV core ELISAs. […] D. Model for the HIV-1/HCV co-culture system.

HCV JFH-1 [2] = assay: HIV-1/HCV co-culture co-infection, HCV core ELISA; type: cell-based
Method: as §1, §2, §3

HCV JFH-1 [3] = assay: HCV mono-infection of Huh7.5.1 cells, core ELISA; type: cell-based; details: Fig 1B
HIV-1 JR-CSF [4] = assay: HIV-1 mono-infection of CD4+ T-lymphocytes, p24 ELISA; type: cell-based; details: Fig 1A
Text: Hemoglobin determinations at every donation protect the donor from phlebotomy-induced anemia. The donor pool also provides investigators with a mix of gender and minority subjects, and recruitment is ongoing for underrepresented minorities. At the present time, the NBDS has 320 active normal blood donors enrolled. Use of the Normal Blood Donor Service is considered “human subjects” research and each investigator who wants to use the service must submit a protocol to the IRB for review and approval. Dr. Gallay has current IRB approval for the human blood obtained for research described in this manuscript. Protocol No: IRB-15-6552. Full name of the IRB is "Scripps IRB". […] Consent from blood donors was obtained verbally. The authors have no access to identifying donor information for these samples.

human T cells = details: cited from earlier work
[5] = drug treatments begun 3 h before virus addition
[6] = single dose added 3 days post-infection

SMILES	Effect on HIV-1 replication (in words) (HIV-1 JR-CSF [1]; [5])	Effect on HCV replication (in words) (HCV JFH-1 [2]; [5])	Effect on HCV replication (in words) (HCV JFH-1 [2]; [6])	Effect on HCV replication (in words) (HCV JFH-1 [3])	Effect on HIV-1 replication (in words) (HIV-1 JR-CSF [4])	Cellular toxicity (in words) (human T cells; general statement on other CypI, no reference given)	Effect on HIV-1 replication (in words) (HIV-1 JR-CSF [1]; [6])	Cellular toxicity (in words) (human T cells)
COC(=O)N[C@H](C(=O)N1CCC[C@H]1c1nc(-c2ccc(-c3ccc(-c4c[nH]c([C@@H]5CCCN5C(=O)[C@@H](NC(=O)OC)C(C)C)n4)cc3)cc2)c[nH]1)C(C)C [Daclatasvir, daclatasvir]	did not	completely prevented	completely eradicated	fully blocked HCV replication	had no effect			
C/C=C/C[C@@H](C)[C@@H](O)[C@H]1C(=O)N[C@@H](CC)C(=O)N(C)CC(=O)N(C)[C@@H]([C@@H](C)CC)C(=O)N[C@@H](C(C)C)C(=O)N(C)[C@@H](CC(C)C)C(=O)N[C@@H](C)C(=O)N[C@H](C)C(=O)N(C)[C@@H](CC(C)C)C(=O)N(C)[C@@H](CC(C)C)C(=O)N(C)[C@@H](C(C)C)C(=O)N1C [NIM811]						lack of cellular toxicity		
Cc1c(O)cccc1C(=O)N[C@@H](CSc1ccccc1)[C@H](O)CN1C[C@H]2CCCC[C@H]2C[C@H]1C(=O)NC(C)(C)C [Nelfinavir, nelfinavir]	totally prevented HIV-1 replication	did not		had no effect	totally blocked replication		completely eradicated	
C/C=C/C[C@@H](C)[C@@H](O)[C@H]1C(=O)N[C@@H](CC)C(=O)N(C)[C@H](SCCN(C)C)C(=O)N(C)[C@@H](CC(C)(C)O)C(=O)N[C@@H](C(C)C)C(=O)N(C)[C@@H](CC(C)C)C(=O)N[C@@H](C)C(=O)N[C@H](C)C(=O)N(C)[C@@H](CC(C)C)C(=O)N(C)[C@@H](CC(C)C)C(=O)N(C)[C@@H](C(C)C)C(=O)N1C [SCY-635]								lack of cellular toxicity
